From patent EP0326637A1, “New 2-anilinophenylacetic acid derivative” (Mikasa Seiyaku Co., Ltd., priority 1988, dated 1989)
Where a name gives a salt, the structure may show the parent alone. Read-outs that look alike come from different tables or passages of the source.

Assays:
[1] = tested on: female mice of ICR strain; experiment: Analgesic and anti-capillary permeability effects according to Wittle's method (acetic acid stretching, PSB exudation); type: in vivo; settings: oral 25 mg/kg, 1% acetic acid i.p., compared with control Group 3 (P<0.01), no significant difference between Groups 1 and 2; for inhibitory activities of the stretching: stretchings counted for 20 minutes; for inhibitory activities of the exudation of the colorant from the peritoneal cavity: 4% Pontamine Sky Blue i.v.
Excerpt: (b) Analgesic and anti-capillary permeability effects according to Wittle's method:
Three groups of female mice of ICR strain weighing 22-28 g were used, each group consisting of 10 mice; one group (Group 1) was used for the administration of the compound of this invention, another group (Group 2) for the administration of diclofenac sodium salt and the other group (Group 3) as control. […] Immediately after the intraperitoneal injection, the number of stretchings of the treated mice were counted and recorded for 20 minutes. After this observation, the mice were immediately sacrificed by dislocation of cervical vertebrae and subjected to ventrotomy. The peritoneal cavity of each mouse was washed with 5 ml of distilled water to exudate PSB in the peritoneal cavity, and the amount of the colorant exudated was measured.

[2] = tested on: male rats of Wistar strain; type: in vivo
Procedure: (b) Gastric ulcerogenic action:
Three groups of male rats of Wistar strain weighing 300-340 g were used, each group consisting of 7 rats; one group (Group 1) was used for control, another group (Group 2) for the administration of the compound of this invention and the other group (Group 3) for the administration of diclofenac sodium salt. After 24 hour fasting prior to the test, the compound of this invention and the diclofenac sodium salt were orally administered each in a dose of 20 mg/kg to the rats of the relevant groups. Six hours after the administration, the rats were sacrificed by decaptation and their stomachs were immediately removed. A 5% formaline solution (10 ml) was injected through the cardia into the stomach cavity and the stomach was fixed overnight in a 10% formaline solution. Each fixed stomach was cut along the greater curvature, and the inside of the stomach was investigated by the naked eye to check whether ulcers and erosions occurred or not. An ulcerogenic and erosion index was 0.71±0.42 in Group 1, 1.13±0.40 in Group 2 and 17.57±4.28 in Group 3. The number of rats having ulcers or erosions was 3/7 (42.9%) in Group 1, 4/7 (57.1%) in Group 2 and 7/7 (100%) in Group 3.

[3] = Solubility (description of the substance); type: physicochemical; settings: organic solvents
[4] = tested on: carrageenin-induced hind paw edema; experiment: Inhibitory effect on carrageenin-induced hind paw edema in rats; type: in vivo, rats of Wistar strain; settings: male Wistar rats, 8 per group, oral; reference drugs at LD₅₀ amount, compound of this invention equimolar to diclofenac sodium salt; compared with Control group (P<0.01); no significant difference between the test compounds
Excerpt: (a) Inhibitory effect on carrageenin-induced hind paw edema in rats:
40 Male rats of Wistar strain weighing 100-130 g were divided into the following 5 groups each consisting of 8 rats: 1. Control group, 2. Group for the administration of the compound of this invention, 3. Group for the administration of diclofenac Na, 4. Group for the administration of flurubiprofen and 5. Group for the administration of indomethacin. Prior to the administration of the test compounds, plantar injections 1% carrageenin solution were made to each rat to induce hind paw edema. To each rat of the Groups 3, 4 and 5, the LD₅₀ amount of the relevant test compound was orally administered in molar amounts. The compound of the present invention was administered in an equimolar amount to the diclofenac sodium salt.

in vivo = settings: mouse, in vivo, po, LD₅₀, oral administration, Litchfield-Wilcoxon's method, dead mice during one week
Procedure: (§1) (a) Acute oral toxicity in mice:
(§2) Groups of male and female mice of ICR strain weighing 25-35 g were used for the test, each group consisting of 6 mice. […] LD₅₀ values of the compound of this invention were calculated for each concentration according to the Litchfield-Wilcoxon's method from the number of dead mice during one week.

mice of ICR strain = experiment: in vivo; settings: oral, male and female mice
Procedure: as §1, §2

Row | SMILES | inhibitory activities of the stretching [1] | inhibitory activities of the exudation of the colorant from the peritoneal cavity [1] | number of rats having ulcers or erosions ([2]; rat, in vivo, po, 20 mg/kg) | ulcerogenic and erosion index ([2]; rat, in vivo, po, 20 mg/kg) | solubility [3] | swelling of the edema [4] | LD50 at 168 h (in vivo; female mice) | LD50 at 168 h (in vivo; male mice) | LD₅₀ values relative to those of diclofenac sodium salt (mice of ICR strain) | ulcerogenic and erosion index ([2]; male Wistar rats, 7 per group, 24 hour fasting, oral 20 mg/kg, six hours after administration)
1 | Cc1oc(=O)oc1COC(=O)Cc1ccccc1Nc1c(Cl)cccc1Cl [compound of this invention, (5-methyl-2-oxo-1,3-dioxolen-4-yl)methyl 2-(2,6-dichloroanilino)phenylacetate] | significant difference | significant difference | 4/7 (57.1%) | 1.13±0.40 | soluble in organic solvents such as alcohols | significantly inhibited | 516 mg/kg | 460 mg/kg | approximately 3 times | –
2 | O=C(O)Cc1ccccc1Nc1c(Cl)cccc1Cl [diclofenac sodium salt, reference compound] | significant difference | significant difference | – | – | – | significantly inhibited | – | – | – | 17.57±4.28
3 | CC(C(=O)O)c1ccc(-c2ccccc2)c(F)c1 (stereo not drawn) [flurubiprofen] | – | – | – | – | – | significantly inhibited | – | – | – | –
4 | COc1ccc2c(c1)c(CC(=O)O)c(C)n2C(=O)c1ccc(Cl)cc1 [indomethacin] | – | – | – | – | – | significantly inhibited | – | – | – | –
